# Test system: fresh cynomolgus monkey hepatocytes
# Assay: Metabolism of Formula I prodrugs to 6-oxy metabolites in fresh cynomolgus monkey hepatocytes (LC/MS/MS)
# Type: in vitro ADME
# Experimental: A study was undertaken to evaluate the metabolic stability of Formula I compounds 14, 15, 13, 114, 30, 103, 67, 65, and 76 in the presence of fresh cynomolgus monkey hepatocytes and monitor the formation of 6-oxy metabolites, i.e., Formula II compounds and other compounds of the invention. For comparison, the metabolic stability of famciclovir was also assessed.
# Fresh cynomolgus monkey hepatocyte suspension (Lot #: Cy141) was purchased from CellzDirect (Tucson, Ariz.). Hepatocyte Incubation Medium (serum-free, sterile) was purchased from In Vitro Technologies (Baltimore, Md.).
# The cynomolgus monkey hepatocyte suspension was prepared from fresh cynomolgus monkey hepatocytes in hepatocyte incubation medium at the concentration of 1.25 million cells/mL. The final incubation concentration (after test article addition) was 1.0 million cells/mL.
# Existing 100 mM stock solutions in DMSO were used. The concentrations of the test articles were checked using UV-vis microplate reader. Correction coefficients were determined using the absorbance of a freshly prepared DMSO stock of 122.
# Reaction suspensions were prepared in removable 96-well tubes, each containing 320 μL of fresh cynomolgus monkey hepatocyte suspension at the density of 1.25 million cells per mL and 40 μL of hepatocyte incubation medium. The above mixtures were pre-incubated open at 37° C., 95% humidity and 5% CO2 for 30 minutes. Reactions were initiated by the addition of 40 μL of test article at 10× concentration to each tube to achieve the final concentrations of 50 μM for the test article(s) and 1 million/mL cell density. The reaction suspension in each tube was mixed by inverting the tube several times. Aliquots of 50 μL from each reaction suspension were distributed into six additional removable 96-well tubes (one tube per time point taken at 15, 30, 45, 60, 90, and 120 minutes). The open tubes were incubated at 37° C. under 95% humidity and 5% CO2.
# At predetermined time points, reactions were terminated by the addition of 150 μL of the stop solution to each tube containing 50 μL of the reaction suspension. The composition of the stop solution was the following: 15 mL of acetonitrile (containing 1 μg/mL nebularine as an internal standard and 0.1% formic acid) combined with 1 mL water.
# The calibration curves were prepared in the following way. To 80 μL of cell suspension (at the cell density of 1.25 million/mL) 10 μL of hepatocyte incubation medium and 10 μL of the appropriate concentration of the compound in hepatocyte incubation medium were added Immediately following the compound addition, 300 μL of the stop solution (see above) was added.
# All quenched samples were kept on wet ice until they were processed for analysis. Then they were mixed using a bench top Multi-Tube Vortexer (VWR Scientific Products) for approximately 30 seconds, and centrifuged at 4,000 rpm (3,220 rcf) for 10 minutes at 4° C. Clear supernatant (100 μl) was transferred into a clean deep well 96-well plate, evaporated to dryness under nitrogen, reconstituted in 100 μL of 90:10 water:acetonitrile, and analyzed for the parent form and metabolites of the test article using an appropriate LC/MS/MS method.
# The compounds were quantified on an API3000 LC/MS/MS instrument in the ESI-Positive MRM (multiple reaction monitoring) mode.
row,Structure (SMILES),Metabolism to the corresponding 6-oxy metabolite
1,"CC(=O)O[C@@H]1C[C@@H](CO)O[C@H]1n1c(=O)sc2cnc(N)nc21 [Compound 15, 5-Amino-3-(2′-O-acetyl-3′-deoxy-β-D-ribofuranosyl)-3H-thiazolo[4,5-d]pyrimidin-2-one]",metabolized to yield the corresponding 6-oxy metabolites
2,"CC(=O)OCC[C@H]1O[C@@H](n2c(=O)sc3cnc(N)nc32)[C@H](OC(C)=O)[C@@H]1OC(C)=O [Compound 67, 5-Amino-3-(5′-O-acetoxymethyl-2′,3′-di-O-acetyl-5′-deoxy-β-D-ribofuranosyl)-3H-thiazolo[4,5-d]pyrimidin-2-one]",metabolized to yield the corresponding 6-oxy metabolites
3,"CC(=O)OC[C@@H]1C[C@@H](OC(C)=O)[C@H](n2c(=O)sc3cnc(N)nc32)O1 [Compound 14, 5-Amino-3-(2′,5′-di-O-acetyl-3′-deoxy-β-D-ribofuranosyl)-3H-thiazolo[4,5-d]pyrimidin-2-one]",metabolized to yield the corresponding 6-oxy metabolites
4,"CC(=O)OC[C@H]1O[C@@H](n2c(=O)sc3cnc(N)nc32)[C@H](OC(C)=O)[C@H]1OC(C)=O [Compound 114, 5-Amino-3-(2′,3′,5′-tri-O-acetyl-β-D-xylofuranosyl)-3H-thiazolo[4,5-d]pyrimidin-2-one]",metabolized to yield the corresponding 6-oxy metabolites
5,"Nc1ncc2sc(=O)n([C@@H]3O[C@H](CO)C[C@H]3O)c2n1 [Compound 13, 5-Amino-3-(3′-deoxy-β-D-ribofuranosyl)-3H-thiazolo[4,5-d]pyrimidin-2-one]",metabolized to yield the corresponding 6-oxy metabolites
6,"C[C@@]1(O)[C@@H](CO)O[C@@H](n2c(=O)sc3cnc(N)nc32)[C@@H]1O [Compound 30, 5-Amino-3-(3′-methyl-β-D-ribofuransyl)-3H-thiazolo[4,5-d]pyrimidin-2-one]",metabolized to yield the corresponding 6-oxy metabolites
7,"CC(=O)OCC(CCn1cnc2cnc(N)nc21)COC(C)=O [Famciclovir, reference compound]",metabolized to yield the corresponding 6-oxy metabolites
8,"Nc1ncc2sc(=O)n(C3O[C@H](CO)[C@@H](CO)[C@H]3O)c2n1 (stereo partly drawn) [Compound 65, (3′S)-5-Amino-3-(3′-deoxy-3′-hydroxymethyl-β-D-ribofuranosyl)-3H-thiazolo[4,5-d]pyrimidin-2-one]",metabolized to yield the corresponding 6-oxy metabolites
9,"C=C1[C@@H](O)[C@H](n2c(=O)sc3cnc(N)nc32)O[C@@H]1CO [Compound 76, 5-Amino-3-(3′-deoxy-3′-methylidene-β-D-ribofuranosyl)-3H-thiazolo[4,5-d]pyrimidin-2-one]",metabolized to yield the corresponding 6-oxy metabolites
10,"CC(=O)OC[C@H]1O[C@@H](n2c(=O)sc3cnc(N)nc32)[C@H](OC(C)=O)[C@@]1(C)OC(C)=O [Compound 103, 5-Amino-3-(3′-methyl, 2′,3′,5′-tri-O-acetyl-β-D-xylofuranosyl)-3H-thiazolo[4,5-d]pyrimidin-2-one]",metabolized to yield the corresponding 6-oxy metabolites

# Source: patent publication US8883758B2, “3,5-disubstituted and 3,5,7-trisubstituted-3H-oxazolo and 3H-thiazolo[4,5-d]pyrimidin-2-one compounds and prodrugs thereof” (Anadys Pharmaceuticals, Inc., priority 2004, dated 2014)
